Laboratory results published in patent US7320984B2, “Remedies or preventives for urinary frequency or urinary incontinence and morphinan derivatives having nitrogen-containing heterocyclic group” (Toray Industries, Inc., priority 2002, dated 2008).

Test system: rhythmic bladder contractions in rats
Experiment: Inhibitory effect against rhythmic bladder contractions in rats
Type: in vivo
Details: anesthetized female SD rats, intravenous
In short: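 Urethane-anesthetized (1.0 g/kg i.p.) female SD rats; saline infused into bladder to induce rhythmic contractions, intravesical pressure monitored. Compound given i.v. at 1 ml/kg in saline, 10% or 20% aqueous DMSO, or 5% aqueous xylitol. Inhibitory time = period intravesical pressure stayed ≤50% of post-dose level (onset within 10 min); vehicles tested alone.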

Row | SMILES | Mean Inhibitory Time of Rhythmic Bladder Contractions (dose 0.1 mg/kg body weight) [min] | Mean Inhibitory Time of Rhythmic Bladder Contractions (dose 0.01 mg/kg body weight) [min] | also measured
1 | O=c1[nH]c2ccccc2c(=O)n1[C@@H]1CC[C@@]2(O)[C@H]3Cc4ccc(O)c5c4[C@@]2(CCN3CC2CC2)[C@H]1O5 [Compound 104, 3-(17-cyclopropylmethyl-4,5α-epoxy-3,14-dihydroxy-morphinan-6β-yl)-1H-quinazolin-2,4-dione] | 13.5 | – | –
2 | O=c1c2ccccc2[nH]c(=S)n1[C@@H]1CC[C@@]2(O)[C@H]3Cc4ccc(O)c5c4[C@@]2(CCN3CC2CC2)[C@H]1O5 [Compound 105, 3-(17-cyclopropylmethyl-4,5α-epoxy-3,14-dihydroxy-morphinan-6β-yl)-2-thioxo-2,3-dihydro-1H-quinazolin-4-one] | 7.3 | – | –
3 | O=C1Cc2ccccc2C(=O)N1[C@@H]1CC[C@@]2(O)[C@H]3Cc4ccc(O)c5c4[C@@]2(CCN3CC2CC2)[C@H]1O5 [Compound 106, 2-(17-cyclopropylmethyl-4,5α-epoxy-3,14-dihydroxy-morphinan-6β-yl)-4H-isoquinolin-1,3-dione] | – | 12.9 | –
4 | O=S1(=O)c2ccccc2S(=O)(=O)N1[C@@H]1CC[C@@]2(O)[C@H]3Cc4ccc(O)c5c4[C@@]2(CCN3CC2CC2)[C@H]1O5 [Compound 107, 2-(17-cyclopropylmethyl-4,5α-epoxy-3,14-dihydroxy-morphinan-6β-yl)-benzo[1,3,2]dithiazol-1,1,3,3-tetraoxide] | – | 14.1 | –
5 | O=C1c2ccccc2S(=O)(=O)N1[C@@H]1CC[C@@]2(O)[C@H]3Cc4ccc(O)c5c4[C@@]2(CCN3CC2CC2)[C@H]1O5 [Compound 108, N-(17-cyclopropylmethyl-4,5α-epoxy-3,14-dihydroxy-morphinan-6β-yl)-O-sulfonebenzimide] | – | 25.6 | –
6 | C=CCN1CC[C@]23c4c5ccc(O)c4O[C@H]2[C@H](N2C(=O)c4ccccc4S2(=O)=O)CC[C@@]3(O)[C@H]1C5 [Compound 109, N-(17-allyl-4,5α-epoxy-3,14-dihydroxy-morphinan-6β-yl)-O-sulfonebenzimide] | 18.1 | – | –
7 | O=S1(=O)c2ccccc2CN1[C@@H]1CC[C@@]2(O)[C@H]3Cc4ccc(O)c5c4[C@@]2(CCN3CC2CC2)[C@H]1O5 [Compound 110, N-(17-cyclopropylmethyl-4,5α-epoxy-3,14-dihydroxy-morphinan-6β-yl)-2,3-dihydro-benzo[d]isothiazol-1,1-dioxide] | 12.6 | – | –
8 | Oc1ccc2c3c1O[C@H]1[C@H](N4CCCC4)CC[C@@]4(O)[C@@H](C2)N(CC2CC2)CC[C@]314 [Compound 111, 17-cyclopropylmethyl-4,5α-epoxy-6β-(pyrrolidin-1-yl)-morphinan-3,14-diol] | – | – | Mean Inhibitory Time of Rhythmic Bladder Contractions (dose 1.0 mg/kg body weight): 2.8 min
